Assays:
TNF-α = assay: UV-induced TNF-α mRNA expression in HaCaT cells (real-time PCR); type: cell-based, human; conditions: 1 μg/mL, UV 100 J/m^2, compared to control group (FIG. 3)
Description: (§1) 1×10^6 HaCaT cells were inoculated on a 100-mm culture dish and cultured in DMEM containing 10% FBS for 24 hour. Then, the cells were starved by culturing for 24 hours in DMEM containing 1% FBS. Then, after treating with homoisoflavanone at 1 μg/mL for 1 hour, the cells were washed 3 times with PBS and irradiated with UV at 100 J/m^2 to induce increase of cytokines. Immediately after the UV radiation, the cells were washed again with PBS and further cultured for 2 or 5 hours in DMEM containing 1% FBS which had been treated with homoisoflavanone at the same concentration.
(§2) After extracting RNA from the cells of each test group using TRIzol (Invitrogen, USA), cDNA was prepared by carrying out PCR (PTC-225 Peltier thermal cycler, MJ Research, USA). Then, the mRNA expression of IL-6, IL-8 and TNF-α was measured through real-time PCR (Roter Gene 6000 series, Corbett Research, Australia) using the cDNA as template and using commercially available IL-6, IL-8 and TNF-α primers. The expression level of the pro-inflammatory cytokines was compared relative to the non-treated group.

hairless mouse (SKH-1) = assay: Ear edema induced by phorbol 12-myristate 13-acetate in animal model; type: in vivo
Description: In order to confirm the in vitro test result on the human keratinocytes HaCaT cells in an animal model, experiment was performed as follows using hairless mouse (SKH-1). Test groups are as follows: non-treated group—treated not with phorbol 12-myristate 13-acetate but only with acetone (TPA); test group A—treated with 1 μg/10 μL homoisoflavanone or 50 μg/10 μL dexamethasone; control group (TPA)-treated with 100 μM phorbol 12-myristate 13-acetate; test group B—treated with 1 μg/10 μL homoisoflavanone or 50 μg/10 μL dexamethasone as well as 100 μM phorbol 12-myristate 13-acetate.
One hour before treating with phorbol 12-myristate 13-acetate, 1 μg/10 μL homoisoflavanone or 50 μg/10 μL dexamethasone was applied on the front and rear parts of the ear, 5 μL each. Then, 6 hour after the application of phorbol 12-myristate 13-acetate, ear thickness and weight were measured.
In order to investigate overall change in the skin tissue, hematoxylin-eosin staining was carried out.

Hairless mice = assay: Ear edema transiently induced by croton oil in animal model; type: in vivo, mouse; conditions: 1 μg/10 μL topical 1 h before 1.6% croton oil, 6 hours after croton oil (FIG. 10b)
Description: Hairless mice were subdivided into a non-treated group (treated with acetone only, not with croton oil), a control group (treated with 1.6% croton oil) and a test group (treated with 1 μg/10 μL homoisoflavanone and 1.6% croton oil), and the effect on ear edema induced by croton oil was investigated.
One hour before treating with 1.6% croton oil, 1 μg/10 μL homoisoflavanone was applied on the front and rear parts of the ear, 5 μL each. Then, 6 hours after treating with croton oil, ear thickness was measured.

ERK = assay: UV-induced ERK phosphorylation in HaCaT cells (Western blot); type: cell-based, human; conditions: 1 μg/mL, UV (FIG. 2d)
Description: In order to identify the intracellular factors affecting COX-2 expression that are affected by homoisoflavanone, Western blotting was carried out in the same manner as in Example 2-1 except for treating with homoisoflavanone at 1 μg/mL, irradiating UV for 45 minutes and using rabbit anti-p-cytosolic phospholipase A2 (cPLA2) antibody, rabbit anti-cPLA2 antibody, rabbit anti-ERK antibody, rabbit anti-p-ERK antibody, rabbit anti-p38 antibody or rabbit anti-p-p38 antibody and using anti-rabbit IgG-HRP conjugation antibody (Zymed) as secondary antibody. Positive control groups were treated with 1 μM SB203580 (A.G. Scientific, Inc.) as p38 inhibitor or 10 μM PD98059 (A.G. Scientific, Inc.) as MEK 1 inhibitor instead of homoisoflavanone.

rat mast cells = assay: Antigen (DNP-IgE/DNP-HSA)-induced degranulation of rat mast cells (hexosaminidase release); type: cell-based; conditions: at 2 μg/mL, DNP-IgE / 10 ng/mL DNP-HSA, concentration-dependent (FIG. 8c)
Description: Further, the effect of homoisoflavanone on degranulation of rat mast cells induced by antigen was investigated. 5×10^4 rat mast cells were inoculated on a 6-well plate and cultured in MEM containing 15% FBS for 24 hours. Then, after reacting with 1 μg/mL DNP-IgE for 16 hours and then removing DNP-IgE by washing with PBS, the cells were cultured in 15% MEM for 6 hours. After pretreating with homoisoflavanone in Tyrode's solution for 30 minutes, the cells were treated with 10 ng/mL DNP-human serum albumin (HSA) to induce degranulation by transmitting the signals induced by the antigen. 30 minutes later, the supernatant was collected and the pellets were lysed with 0.5% triton X-100 (500 μL). The supernatant and the lysed pellets (70 μL) were incubated at 37° C. for 90 minutes in 0.1 M sodium citrate solution (pH 4.5) containing 8 mM p-nitrophenyl-N-acetyl-β-d-glucosaminide (70 μL). Then, after adding 0.2 M glycine (pH 10.7, 70 μL) to stop the reaction, absorbance was measured at 405 nm. Total enzymatic activity was calculated by the following equation.
Release amount=(Absorbance of supernatant)÷(Absorbance of supernatant+Absorbance of pellets)×100%

IL-6 = assay: UV-induced IL-6 mRNA expression in HaCaT cells (real-time PCR); type: cell-based, human; conditions: 1 μg/mL, UV 100 J/m^2, compared to control group (FIG. 3)
Description: as §1, §2

NF-κB = assay: UV-induced NF-κB nuclear translocation in HaCaT cells (immunocytochemical staining); type: cell-based, human; conditions: 1 μg/mL, UV 100 J/m^2, 4 hours (FIG. 2e)
Description: In order to investigate whether the transcription factor NF-κB is activated, human keratinocytes HaCaT cells were immunocytochemically stained as follows.
After inoculating the cells on a 14-mm culture slide, the cells were cultured in DMEM containing 10% FBS for 24 hour. Then, the cells were starved by culturing for 24 hours in DMEM containing 1% FBS. Then, after treating with homoisoflavanone at 1 μg/mL for 1 hour, the cells were washed 3 times with PBS and irradiated with UV at 100 J/m^2. Immediately after the UV radiation, the cells were washed again with PBS and further cultured for 4 hours in DMEM containing 1% FBS while treating with homoisoflavanone at the same concentration. Then, the cells were fixed with methanol for 5 minutes and then subjected to immunocytochemical staining.
The fixed cells were blocked with 10% normal goat serum and then washed 3 times with PBS. Then, after fluorescence staining NF-κB using rabbit anti-NF-κB antibody (SantaCruz, USA) and Alexa 488-conjugated anti-rabbit IgG secondary antibody (Invitrogen, USA), counter staining was carried out using Hoechst (Sigma, St. Louis, Mo.).

COX-2 = COX-2 expression induced by PMA and A23187 in human mast cells (Western blot); type: cell-based; conditions: HMC-1, homoisoflavanone 2 μg/mL or celecoxib 60 μM, 50 nM PMA + 1 μM A23187, 21 hours (FIG. 7a)
Description: In order to investigate the effect of homoisoflavanone on COX-2 expression induced by phorbol 12-myristate 13-acetate and A23187 in human mast cells, 1×10^6 HMC-1 cells were inoculated on a 100-mm culture dish and cultured in IMDM containing 10% FBS for 48 hours.

[1] = topical 1 μg/10 μL homoisoflavanone or 50 μg/10 μL dexamethasone 1 h before 100 μM TPA, 6 hour after TPA, vs TPA control (FIG. 4a, 4b)

In the case of COc1ccc(CC2COc3cc(O)cc(O)c3C2=O)cc1O (stereo not shown) [homoisoflavanone], the “expression of TNF-α (mRNA) induced by UV” value (TNF-α) is reported as “decreased expression”, the “hyperplasia in the epidermis (hematoxylin-eosin staining)” value (hairless mouse (SKH-1); 1 μg/10 μL homoisoflavanone or 50 μg/10 μL dexamethasone plus TPA (FIG. 4c)) is reported as “significantly reduced” and the ear thickness (hairless mouse (SKH-1); [1]) is reported as “decrease”. The ear weight (hairless mouse (SKH-1); [1]) was “decrease”, the “decrease in ear thickness” value (Hairless mice) was 63% and the “phosphorylation of ERK” value (ERK) was “inhibited”. The “inhibition of antigen-induced degranulation (hexosaminidase release)” value (rat mast cells) was 50%, the “expression of IL-6 (mRNA) induced by UV” value (IL-6) was “decreased expression” and the “migration of NF-κB into the nucleus induced by UV radiation” value (NF-κB) was “inhibits”. For the same molecule, the “inhibition of COX-2 expression” value (COX-2) was 80%.

— patent publication US20110207807A1, “NEW USE FOR HOMOISOFLAVONE OR A SALT THEREOF” (Catholic University Industry Academy Cooperation Foundation, priority 2008, published 2011)
